Test results: patent publication US20090291857A1, “METHODS TO IDENTIFY INHIBITORS OF THE UNFOLDED PROTEIN RESPONSE” (THE BOARD OF TRUSTEES OF THE LELAND STANFORD JUNIOR …, priority 2006, published 2009)

System: XBP-luciferase reporter
Test: XBP-luciferase reporter assay under Tm or hypoxia
Format: cell-based, human
Procedure: HT1080 cells stably expressing the XBP-luciferase construct were grown in 60 mm dishes to 60-70% confluency. Following hypoxia treatment, cells were washed twice with PBS, lysed in 400 μl 1× reporter lysis buffer (RLB) (Promega, Madison Wis.) for 30 min at 24° C. Lysates (100 μl) were mixed with an equal volume of luciferase substrate (Promega), and assayed using a luminometer. For 5×-UPRE-luciferase reporter assays, cells were co-transfected with the appropriate reporter plasmid and a control plasmid (pSV40-beta-gal) using Lipofectamine 2000 (Invitrogen, San Diego, Calif.). Twenty-four hours after transfection, fresh media was added, and cells were treated with Tm or shifted to hypoxia. After treatment, cells were lysed in 1× RLB and analyzed for luciferase activity as described above. Beta-galactosidase activity was determined using the beta-galactosidase enzyme assay system (Promega).
A. XBP-luciferase reporter construct. […] After 24 hours, luciferase activity was analyzed in an automated plate reader. For each cell line, values are expressed as the percent inhibition of the median for Tm/Tg-treated wells, corrected for background. […] Values are expressed as the fold increases over uninduced levels. […] Cells were harvested, lysed, and analyzed by immunoblotting with antisera specific for HIF-1α (top), XBP-1s (middle) or actin (bottom). […]

How did the “activation of the XBP-luciferase reporter under hypoxia” value (1 μM, hypoxia 24 or 48 hours) turn out when `Cc1csc(NC(=O)CSc2nc3c(c(C(F)(F)F)c2C#N)CCC3)n1` [Compound 9389] was run?
Its value is “robustly inhibited this response”.

And the inhibition at 1 µM (Homo sapiens, Tm 24 hours, read-out: inhibition of Tm-mediated activation of the XBP-luciferase reporter)?
Its inhibition at 1 µM is greater than 90%.
